Measurements published in ChEMBL document CHEMBL5338777, “Small-Molecule Modulators Targeting Toll-like Receptors for Potential Anticancer Therapeutics” (J Med Chem, 2023).
Values belong to the compound of their own block, whether it stands above or below them.

Columns and labels:
Toll-like receptor 7 = biological target: T1, Toll-like receptor 7 (Homo sapiens, UniProt Q9NYK1)
T1 sequence (Q9NYK1 whole entry): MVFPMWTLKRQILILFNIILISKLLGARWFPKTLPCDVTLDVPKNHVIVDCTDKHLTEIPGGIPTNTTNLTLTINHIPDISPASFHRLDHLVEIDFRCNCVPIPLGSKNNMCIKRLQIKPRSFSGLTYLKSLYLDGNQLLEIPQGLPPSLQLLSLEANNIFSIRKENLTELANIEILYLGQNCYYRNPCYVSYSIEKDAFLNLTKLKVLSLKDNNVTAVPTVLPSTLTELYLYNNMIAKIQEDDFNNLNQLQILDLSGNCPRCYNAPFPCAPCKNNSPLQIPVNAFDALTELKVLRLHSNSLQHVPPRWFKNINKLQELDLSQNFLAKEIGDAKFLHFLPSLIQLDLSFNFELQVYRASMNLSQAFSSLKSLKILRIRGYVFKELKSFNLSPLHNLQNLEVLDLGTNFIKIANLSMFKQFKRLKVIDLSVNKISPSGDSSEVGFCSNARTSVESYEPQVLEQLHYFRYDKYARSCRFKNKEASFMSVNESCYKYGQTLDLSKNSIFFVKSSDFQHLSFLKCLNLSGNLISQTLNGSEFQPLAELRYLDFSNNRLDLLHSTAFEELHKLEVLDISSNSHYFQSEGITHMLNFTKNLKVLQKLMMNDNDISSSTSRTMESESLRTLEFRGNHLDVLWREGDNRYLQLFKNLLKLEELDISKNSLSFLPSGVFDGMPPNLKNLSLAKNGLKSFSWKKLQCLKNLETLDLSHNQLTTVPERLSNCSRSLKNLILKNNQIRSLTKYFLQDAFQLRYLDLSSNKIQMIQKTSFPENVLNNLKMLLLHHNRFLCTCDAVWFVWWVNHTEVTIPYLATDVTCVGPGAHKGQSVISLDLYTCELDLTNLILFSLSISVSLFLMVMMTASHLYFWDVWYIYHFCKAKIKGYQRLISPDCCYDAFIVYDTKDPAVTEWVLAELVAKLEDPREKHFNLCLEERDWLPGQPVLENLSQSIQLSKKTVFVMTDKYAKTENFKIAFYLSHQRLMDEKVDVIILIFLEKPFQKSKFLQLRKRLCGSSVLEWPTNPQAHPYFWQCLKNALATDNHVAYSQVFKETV
Description: Agonist activity at TLR7 (unknown origin)

Toll-like receptor 5 = Toll-like receptor 5 (Homo sapiens, UniProt O60602); experiment: Antagonist activity at TLR5 (unknown origin)
[1] = Antagonist activity at TLR2/TLR4 (unknown origin); parameters: species or system Homo sapiens
Toll-like receptor 8 [2] = biological target: T2, Toll-like receptor 8 (Homo sapiens, UniProt Q9NR97)
T2 sequence (Q9NR97 whole entry): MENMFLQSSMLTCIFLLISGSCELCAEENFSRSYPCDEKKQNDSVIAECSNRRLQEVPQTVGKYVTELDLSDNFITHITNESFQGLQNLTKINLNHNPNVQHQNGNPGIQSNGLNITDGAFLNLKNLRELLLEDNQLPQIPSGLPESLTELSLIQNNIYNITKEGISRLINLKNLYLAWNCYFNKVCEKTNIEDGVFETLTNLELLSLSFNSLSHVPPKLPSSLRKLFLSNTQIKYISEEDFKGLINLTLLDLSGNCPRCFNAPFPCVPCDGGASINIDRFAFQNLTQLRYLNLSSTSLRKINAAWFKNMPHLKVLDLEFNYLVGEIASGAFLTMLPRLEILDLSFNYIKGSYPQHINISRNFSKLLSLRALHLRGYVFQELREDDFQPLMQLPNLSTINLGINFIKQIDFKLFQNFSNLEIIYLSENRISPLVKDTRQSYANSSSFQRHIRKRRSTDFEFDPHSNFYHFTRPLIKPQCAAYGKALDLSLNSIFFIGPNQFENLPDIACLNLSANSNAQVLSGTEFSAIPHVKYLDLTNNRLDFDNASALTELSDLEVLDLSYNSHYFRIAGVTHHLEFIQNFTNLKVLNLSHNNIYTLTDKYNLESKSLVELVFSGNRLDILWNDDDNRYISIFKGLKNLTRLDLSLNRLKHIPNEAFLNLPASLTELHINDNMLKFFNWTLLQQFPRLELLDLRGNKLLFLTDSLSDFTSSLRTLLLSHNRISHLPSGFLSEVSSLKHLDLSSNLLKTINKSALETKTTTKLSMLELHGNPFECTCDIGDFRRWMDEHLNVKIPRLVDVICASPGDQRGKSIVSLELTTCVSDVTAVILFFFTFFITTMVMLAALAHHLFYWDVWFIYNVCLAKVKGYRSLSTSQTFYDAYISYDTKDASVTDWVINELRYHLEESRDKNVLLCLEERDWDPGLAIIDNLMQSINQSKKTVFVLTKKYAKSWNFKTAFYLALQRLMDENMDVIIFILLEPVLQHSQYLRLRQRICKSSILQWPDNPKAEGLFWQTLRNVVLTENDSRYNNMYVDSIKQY
Description: (§1) Agonist activity at TLR8 (unknown origin)

Toll-like receptor 8 [3] = biological target: T2, Toll-like receptor 8; remark: listed apart in the source
Description: as §1

Toll-like receptor 4 [4] = biological target: T3, Toll-like receptor 4 (Mus musculus, UniProt Q9QUK6); experiment: Antagonist activity at TLR4 in mouse peritoneal macrophages assessed as inhibition of NO production; type: cell-based, Peritoneal macrophage
T3 sequence (Q9QUK6 whole entry): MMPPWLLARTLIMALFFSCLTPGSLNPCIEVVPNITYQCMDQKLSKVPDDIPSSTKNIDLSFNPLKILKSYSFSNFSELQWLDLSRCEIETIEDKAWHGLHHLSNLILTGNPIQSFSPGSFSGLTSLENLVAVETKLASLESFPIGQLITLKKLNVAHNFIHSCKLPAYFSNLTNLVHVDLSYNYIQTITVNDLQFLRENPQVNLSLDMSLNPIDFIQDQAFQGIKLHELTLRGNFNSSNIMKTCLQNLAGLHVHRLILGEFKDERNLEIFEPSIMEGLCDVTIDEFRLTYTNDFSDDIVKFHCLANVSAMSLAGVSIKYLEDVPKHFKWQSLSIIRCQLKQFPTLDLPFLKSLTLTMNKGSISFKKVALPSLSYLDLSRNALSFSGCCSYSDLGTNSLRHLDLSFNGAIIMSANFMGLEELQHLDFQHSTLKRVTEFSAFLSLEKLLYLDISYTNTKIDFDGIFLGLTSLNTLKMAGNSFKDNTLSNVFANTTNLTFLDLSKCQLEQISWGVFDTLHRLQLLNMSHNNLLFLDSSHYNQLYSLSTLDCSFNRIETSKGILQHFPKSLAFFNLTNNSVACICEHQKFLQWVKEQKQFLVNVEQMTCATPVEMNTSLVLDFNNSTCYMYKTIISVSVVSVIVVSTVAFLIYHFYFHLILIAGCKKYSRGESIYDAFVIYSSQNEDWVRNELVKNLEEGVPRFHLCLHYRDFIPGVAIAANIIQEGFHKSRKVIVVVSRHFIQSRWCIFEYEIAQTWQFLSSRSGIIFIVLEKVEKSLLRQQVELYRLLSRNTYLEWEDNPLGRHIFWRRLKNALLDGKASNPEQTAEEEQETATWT

Toll-like receptor 4 [5] = biological target: T3, Toll-like receptor 4; experiment: Antagonist activity at TLR4 in mouse peritoneal macrophages assessed as inhibition of TNF-alpha production; type: cell-based, Peritoneal macrophage
Toll-like receptor 4 [6] = biological target: T3, Toll-like receptor 4; experiment: Antagonist activity at TLR4 in mouse peritoneal macrophages assessed as inhibition of IL-6 production; type: cell-based, Peritoneal macrophage
Toll-like receptor 4 [7] = biological target: Toll-like receptor 4 (Homo sapiens, UniProt O00206); experiment: Inhibition of TLR4 in human HEK293T cells co-expressing MD-2 receptor; type: cell-based
Toll-like receptor 4 (Homo sapiens, UniProt O00206), sequence (O00206 whole entry): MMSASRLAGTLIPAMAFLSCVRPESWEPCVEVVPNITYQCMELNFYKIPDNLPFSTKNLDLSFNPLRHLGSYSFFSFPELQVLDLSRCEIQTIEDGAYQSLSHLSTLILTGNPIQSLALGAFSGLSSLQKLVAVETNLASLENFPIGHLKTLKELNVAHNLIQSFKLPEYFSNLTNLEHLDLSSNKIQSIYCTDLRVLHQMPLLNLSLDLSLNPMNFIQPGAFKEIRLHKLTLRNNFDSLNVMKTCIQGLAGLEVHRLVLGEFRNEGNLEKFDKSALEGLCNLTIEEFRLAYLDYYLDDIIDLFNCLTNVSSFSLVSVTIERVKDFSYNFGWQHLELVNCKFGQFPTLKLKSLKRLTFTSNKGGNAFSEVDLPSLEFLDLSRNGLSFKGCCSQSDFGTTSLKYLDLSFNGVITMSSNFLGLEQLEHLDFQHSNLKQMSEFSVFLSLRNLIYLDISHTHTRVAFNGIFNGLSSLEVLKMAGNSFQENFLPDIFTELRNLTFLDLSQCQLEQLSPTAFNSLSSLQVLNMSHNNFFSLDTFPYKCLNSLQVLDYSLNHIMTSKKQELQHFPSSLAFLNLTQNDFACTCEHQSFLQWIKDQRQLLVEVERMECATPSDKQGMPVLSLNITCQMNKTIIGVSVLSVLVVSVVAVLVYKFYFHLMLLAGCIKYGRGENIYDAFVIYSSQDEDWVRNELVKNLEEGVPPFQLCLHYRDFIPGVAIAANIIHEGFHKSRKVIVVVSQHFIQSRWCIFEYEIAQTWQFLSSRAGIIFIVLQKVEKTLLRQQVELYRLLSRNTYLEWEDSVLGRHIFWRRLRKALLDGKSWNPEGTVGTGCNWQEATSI

Toll-like receptor 5, sequence (O60602 whole entry): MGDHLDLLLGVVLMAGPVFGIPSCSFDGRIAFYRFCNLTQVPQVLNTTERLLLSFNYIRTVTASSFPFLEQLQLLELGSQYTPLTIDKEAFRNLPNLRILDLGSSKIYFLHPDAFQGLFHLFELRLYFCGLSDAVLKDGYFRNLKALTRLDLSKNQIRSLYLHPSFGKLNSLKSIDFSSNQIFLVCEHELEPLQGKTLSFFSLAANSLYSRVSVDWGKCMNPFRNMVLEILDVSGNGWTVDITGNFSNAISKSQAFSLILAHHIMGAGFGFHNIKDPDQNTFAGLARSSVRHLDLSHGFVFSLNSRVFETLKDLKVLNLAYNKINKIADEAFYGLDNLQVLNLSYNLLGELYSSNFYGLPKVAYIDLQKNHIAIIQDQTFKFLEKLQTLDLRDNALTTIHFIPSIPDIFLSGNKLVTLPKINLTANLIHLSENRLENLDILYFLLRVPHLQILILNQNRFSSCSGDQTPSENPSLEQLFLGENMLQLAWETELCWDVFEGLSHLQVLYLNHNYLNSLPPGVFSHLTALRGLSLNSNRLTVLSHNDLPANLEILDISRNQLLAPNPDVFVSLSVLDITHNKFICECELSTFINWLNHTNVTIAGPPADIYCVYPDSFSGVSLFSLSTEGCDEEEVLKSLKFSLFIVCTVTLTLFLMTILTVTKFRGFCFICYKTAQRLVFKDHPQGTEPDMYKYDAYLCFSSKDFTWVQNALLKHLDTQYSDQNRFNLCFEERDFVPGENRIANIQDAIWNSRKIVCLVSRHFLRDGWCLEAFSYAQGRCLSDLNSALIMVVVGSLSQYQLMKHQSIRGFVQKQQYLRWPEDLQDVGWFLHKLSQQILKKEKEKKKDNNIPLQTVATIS

Compound: c1ccc(-n2c(Sc3ncnc4c3sc3ncccc34)nnc2-c2ccncc2)cc1
- IC50 (Toll-like receptor 5): 3130 nM

Compound: O=c1occ2c3c(ccc(O)c13)Oc1ccc(O)cc1-2
- IC50 [1]: ~10000 nM

Compound: CCCCc1nc2c(N)nc3ccccc3c2o1
- EC50 (Toll-like receptor 8 [2]): 180 nM

Compound: Cc1cc(C)c2c(n1)sc1c(Sc3nnc(-c4ccncc4)o3)ncnc12
- IC50 (Toll-like receptor 5): 50500 nM

Compound: c1cnc2sc3c(Sc4nnc(-c5ccncc5)o4)ncnc3c2c1
- IC50 (Toll-like receptor 5): 3380 nM

Compound: CCc1nc2c(N)nc3ccccc3c2n1CCCCNS(C)(=O)=O [CPG-52852]
- EC50 (Toll-like receptor 7): ~3000 nM

Compound: CCOC(=O)C1=CCCC[C@H]1S(=O)(=O)Nc1ccc(F)cc1Cl [RESATORVID]
- IC50 (Toll-like receptor 4 [4]): 1.8 nM
- IC50 (Toll-like receptor 4 [5]): 1.9 nM
- IC50 (Toll-like receptor 4 [6]): 1.3 nM

The next lines start with the values.

- EC50 (Toll-like receptor 7): > 100 nM
Compound: CCCN(CCC)C(=O)C1=Cc2ccc(C(=O)NC(c3ccccc3)c3ccccc3)cc2N=C(N)C1

- EC50 (Toll-like receptor 7): > 100 nM
Compound: CCCN(CCC)C(=O)C1=Cc2ccc(C(=O)N3CC4(C3)CN(c3ccc(C)cc3)C4)cc2N=C(N)C1

- EC50 (Toll-like receptor 8 [3]): 8 nM
- EC50 (Toll-like receptor 7): 16 nM
Compound: CCCN(CCC)C(=O)C1=Cc2ccc(-c3cccc(C(=O)CC)c3)cc2N=C(N)C1

- EC50 (Toll-like receptor 8 [3]): ~100 nM
Compound: CCCN(CCC)C(=O)C1=Cc2ccc(-c3ccc(C(=O)N4CCCC4)cc3)cc2N=C(N)C1 [MOTOLIMOD]

- IC50 (Toll-like receptor 4 [7]): 53 nM
Compound: CCCCCCCCCC(CCCCCCCCC)CC(=O)OC[C@H]1O[C@H](O[C@H]2O[C@H](COC(=O)CC(CCCCCCCCC)CCCCCCCCC)[C@@H](O)[C@H](O)[C@H]2O)[C@H](O)[C@@H](O)[C@@H]1O [VIZANTIN]
